Measured values taken from ChEMBL document CHEMBL1671744 (Antimicrob Agents Chemother, 2010).
≈ marks a conversion by molar mass, not a printed value. Where a SMILES comes first, the peptide text is derived from it. [ ]: non-standard residue; d: D form. The star is where a group is joined. Lauroyl = CCCCCCCCCCCC(=O)*

How the values were obtained:
[1] = test system: Staphylococcus epidermidis; test: Antimicrobial activity against methicillin-resistant Staphylococcus epidermidis; type: functional
Staphylococcus aureus = test: Antimicrobial activity against methicillin-resistant Staphylococcus aureus; type: functional
Aspergillus fumigatus [2] = test: Antimicrobial activity against Aspergillus fumigatus at pH 5.5; type: functional
Aspergillus fumigatus [3] = test: Antimicrobial activity against Aspergillus fumigatus at pH 7.4; type: functional
Escherichia coli [4] = test: Antimicrobial activity against Escherichia coli at pH 5.5; type: functional
[5] = Toxicity in RBC assessed as hemolysis at 50 uM at pH 7.4; type: cell-based; details: erythrocyte, pH 7.4, 50 µM
Escherichia coli [6] = test: Antimicrobial activity against Escherichia coli at pH 7.4; type: functional

| SMILES | MIC [1] | MIC (Staphylococcus aureus) | MIC (Aspergillus fumigatus [2]) | MIC (Aspergillus fumigatus [3]) | MIC (Escherichia coli [4]) | MHC [5] | MIC (Escherichia coli [6]) |
| --- | --- | --- | --- | --- | --- | --- | --- |
| NC[C@H]1O[C@@H](O[C@@H]2[C@@H](O[C@@H]3O[C@H](COC(=O)Nc4ccccc4)[C@@H](O[C@@H]4O[C@H](CN)[C@@H](O)[C@H](O)[C@H]4N)[C@H]3OC(=O)Nc3ccccc3)[C@@H](O)[C@H](N)C[C@@H]2N)[C@H](N)[C@@H](O)[C@@H]1O.O=C(O)C(F)(F)F | 0.5 µg/mL | 1 µg/mL | – | – | – | – | – |
| CCCCCCCCCCCC(=O)N[C@H](CC(C)C)C(=O)N[C@@H](Cc1cnc[nH]1)C(=O)N[C@@H](Cc1cnc[nH]1)C(=O)N[C@H](CC(C)C)C(=O)N[C@H](CC(C)C)C(=O)N[C@@H](Cc1cnc[nH]1)C(=O)N[C@@H](Cc1cnc[nH]1)C(=O)N[C@H](CC(C)C)C(=O)N[C@H](CC(C)C)C(=O)N[C@@H](Cc1cnc[nH]1)C(=O)N[C@@H](Cc1cnc[nH]1)C(=O)N[C@H](CC(C)C)C(N)=O (Lauroyl-[dL]HH[dL][dL]HH[dL][dL]HH[dL]-NH2) | – | – | 6.2 µM (≈ 10.5 µg/mL) | > 100 µM | > 100 µM | Non-toxic | > 100 µM |
